We go through four compounds from patent US8658640B2, “JNK inhibitors for the treatment of endometriosis” (Merck Serono SA, priority 2005, dated 2014).

Test [1] concerns human endometrial tissue organ cultures. The experiment in a line: Proliferative organ culture model (MMP-3 Western blot). In kind it is cell-based. An excerpt:
Normal endometrial tissues were acquired just prior to ovulation by biopsy from a donor population (no history of endometriosis) and from women with surgically confirmed endometriosis. Informed consent was obtained prior to biopsy and the use of human tissues was approved by Vanderbilt University's Institutional Review Board and Committee for the Protection of Human Subjects.
Endometrial biopsies were dissected into small cubes (˜1×1 mm^3) and 8-10 pieces of tissue per treatment group were suspended in tissue culture inserts. Organ cultures were maintained a total of 72 hrs at 37° C. in DME/F-12 media with serum supplements. Tissue treatments included 17β-estradiol (E), E plus progesterone (P), or E plus medroxy progesterone acetate (MPA) with and without the JNK inhibitor. Cultures were maintained for 24 hours in E only until the initiation of experimental conditions. JNK inhibitor was used at a concentration of 5 or 15 μM and MPA was used at a concentration of 50, 100 or 250 μM.
Media was collected from organ cultures and secreted proteins quantified using the Coomassie Plus Protein Assay (Pierce) and 20 μg total protein subjected to 10% SDS-PAGE. Proteins were transferred to PVDF membrane and blocked in PBS with 10% non-fat milk and 0.05% Tween-20. […]

The subject of the next test is endometriotic-like foci. The experiment in a line: Rat model of experimentally induced endometriosis. In kind it is in vivo. The conditions noted are these: for comparison; data not shown. The text has this: The control group received the vehicle only.
Test [2] deals with endometriotic lesions from human endometrial tissue. The conditions noted are these: earlier work using this model; positive control; cited from earlier work.
For test [3] the following is noted: cited from earlier work.

For `CC(=O)O[C@]1(C(C)=O)CC[C@H]2[C@@H]3C[C@H](C)C4=CC(=O)CC[C@]4(C)[C@H]3CC[C@@]21C` [MPA, medroxy progesterone acetate], the “sensitivity to MPA treatment” value in test [1] (endometrial cultures from endometriosis patients) is on record as “failed to regress”; in test [1] (endometrial cultures from normal volunteers) it was “sensitive”.

With antide, the “regression of established endometriotic lesions” value in the test on endometriotic-like foci was “about 85%”.

`CC(=O)[C@H]1CC[C@H]2[C@@H]3CCC4=CC(=O)CC[C@]4(C)[C@H]3CC[C@]12C` [progesterone]: the disease progression entry in test [2] is given as “prevents disease progression”.

For the compound `C#C[C@]1(O)CC[C@H]2[C@@H]3CCC4=Cc5oncc5C[C@]4(C)[C@H]3CC[C@@]21C` [Danazol], the “patients suffering from pain with improved symptoms” value in test [3] was 66-100%.
